Assay results from ChEMBL document CHEMBL6109139, “Rational Design of the First Dual Agonist at Trace Amine-Associated Receptor 1 and 5-HT2C Receptors Based on Binding Pocket Similarity for the Treatment of Schizophrenia and Alzheimer's Disease-Related Psychosis” (J Med Chem, 2025).
Active and inactive are the calls of the source. The rule behind the calls is not given here.

How the values were obtained:
[1] = molecular target: 5-hydroxytryptamine receptor 3A (Homo sapiens) (UniProt P46098); assay: Binding affinity to 5-HT3 (unknown origin) at 10 uM by radioligand binding assay relative to control
[2] = molecular target: Muscarinic acetylcholine receptor M1 (Homo sapiens) (UniProt P11229); assay: Binding affinity to M1 receptor (unknown origin) at 10 uM by radioligand binding assay relative to control
Mus musculus [3] = assay: Antipsychotic activity in amyloid beta(1 to 42) induced cognitive impairment in mouse model assessed as increase in discrimination ratio of novel objects at 1 mg/kg, IG measured after 24 hrs by novel object recognition test; assay type: functional, organism-based
[4] = Toxicity in male Beagle dog assessed as change in hematology at 0.75 to 2.5 mg/kg, IG administered once daily for 4 weeks and measured after 4 weeks; assay type: organism-based, Canis lupus familiaris; settings: in vivo, po, 1344 h, dose 0.75-2.5 mg/kg, time 8 weeks
[5] = Toxicity in Sprague-Dawley rat assessed as normal spontaneous movement at 2.5 to 7.5 mg/kg, po administered once daily for 4 weeks and measured after 4 weeks; assay type: organism-based; settings: in vivo, 1344 h, dose 2.5-7.5 mg/kg, time 8 weeks
[6] = Toxicity in female Sprague-Dawley rat assessed as change in bone marrow smears at 2.5 to 7.5 mg/kg, po administered once daily for 4 weeks and measured after 4 weeks; assay type: organism-based; settings: in vivo, 1344 h, dose 2.5-7.5 mg/kg, time 8 weeks
[7] = Cardiotoxicity in conscious cynomolgus monkey assessed as change in mean arterial pressure at 3.125 to 12.5 mg/kg, IG measured within 25 hrs; assay type: toxicity, organism-based, Macaca fascicularis; settings: in vivo, po, dose 3.125-12.5 mg/kg
[8] = Toxicity in female Beagle dog assessed as change in blood pressure at 0.75 to 2.5 mg/kg, IG administered once daily for 4 weeks and measured after 4 weeks; assay type: organism-based, Canis lupus familiaris; settings: in vivo, po, 1344 h, dose 0.75-2.5 mg/kg, time 8 weeks
Mus musculus [9] = assay: Antipsychotic activity against MK-801 induced hyperlocomotion in male C57BL/6J mouse model assessed as reduction in hyperlocomotive state at 5 mg/kg, IG pretreated with compound followed by MK-801 addition and measured after 30 mins by open field test; assay type: functional, organism-based
[10] = Toxicity in male Sprague-Dawley rat assessed as change in blood glucose level at 2.5 to 7.5 mg/kg, po administered once daily for 4 weeks and measured after 4 weeks; assay type: organism-based; settings: in vivo, 1344 h, dose 2.5-7.5 mg/kg, time 8 weeks
Cytochrome P450 2B6 = Cytochrome P450 2B6 (Homo sapiens, UniProt P20813); assay: Inhibition of CYP2B6 in human liver microsomes in presence of NADPH by LC-MS/MS analysis; assay type: ADME, Microsome
[11] = Toxicity in female Beagle dog assessed as change in gross necropsy at 0.75 to 2.5 mg/kg, IG administered once daily for 4 weeks and measured after 4 weeks; assay type: organism-based, Canis lupus familiaris; settings: in vivo, po, 1344 h, dose 0.75-2.5 mg/kg, time 8 weeks
[12] = Toxicity in female Sprague-Dawley rat assessed as corneal epithelial degeneration at 2.5 to 7.5 mg/kg, po administered once daily for 4 weeks and measured after 4 weeks; assay type: organism-based; settings: in vivo, 1344 h, dose 2.5-7.5 mg/kg, time 8 weeks
Mus musculus [13] = assay: Antipsychotic activity in amyloid beta (1 to 42) induced hyperlocomotion in mouse model assessed as decrease in total distance traveled at 10 mg/kg by open field test; assay type: functional, organism-based
[14] = Cardiotoxicity in conscious cynomolgus monkey assessed as waveform abnormalities in leas-II ECG at 3.125 to 12.5 mg/kg, IG measured within 24 hrs by EcgAUTO analysis; assay type: toxicity, organism-based, Macaca fascicularis; settings: in vivo, po, dose 3.125-12.5 mg/kg
[15] = Toxicity in male Beagle dog assessed as change in clinical chemistry at 0.75 to 2.5 mg/kg, IG administered once daily for 4 weeks and measured after 4 weeks; assay type: organism-based, Canis lupus familiaris; settings: in vivo, po, 1344 h, dose 0.75-2.5 mg/kg, time 8 weeks
L-type calcium channel = L-type calcium channel (Homo sapiens, UniProt O60840+Q01668+Q13698+Q13936); assay: Binding affinity to L-type calcium channel (unknown origin) at 10 uM by radioligand binding assay relative to control; assay type: protein assay; settings: read-out: Activity
[16] = Toxicity in female Beagle dog assessed as change in prolactin at 0.75 to 2.5 mg/kg, IG administered once daily for 4 weeks and measured after 4 weeks; assay type: organism-based, Canis lupus familiaris; settings: in vivo, po, 1344 h, dose 0.75-2.5 mg/kg, time 8 weeks
[17] = Toxicity in male Sprague-Dawley rat assessed as change in prolactin level at 2.5 to 7.5 mg/kg, po administered once daily for 4 weeks and measured after 4 weeks; assay type: organism-based; settings: in vivo, 1344 h, dose 2.5-7.5 mg/kg, time 8 weeks
Cytochrome P450 1A2 = Cytochrome P450 1A2 (Homo sapiens, UniProt P05177); assay: Inhibition of CYP1A2 in human liver microsomes in presence of NADPH by LC-MS/MS analysis; assay type: ADME, Microsome
[18] = Toxicity in male Sprague-Dawley rat assessed as suppression of body weight gain at 7.5 mg/kg, po administered once daily for 4 weeks and measured weekly twice; assay type: organism-based; settings: in vivo, 672 h
[19] = Metabolic stability in human liver microsomes assessed as intrinsic clearance at 1 uM incubated for 60 mins by LC-MS/MS analysis; assay type: ADME, Microsome; settings: read-out: CLH
[20] = Toxicity in male Beagle dog assessed as change in prolactin at 0.75 to 2.5 mg/kg, IG administered once daily for 4 weeks and measured after 4 weeks; assay type: organism-based, Canis lupus familiaris; settings: in vivo, po, 1344 h, dose 0.75-2.5 mg/kg, time 8 weeks
Mus musculus [21] = assay: Antipsychotic activity against MK-801 induced hypermobilization in male C57BL/6J mouse model assessed as reduction in hypermobilization state at 3 mg/kg, IG pretreated with compound followed by MK-801 addition and measured after 30 mins by open field test; assay type: functional, organism-based
[22] = molecular target: Cannabinoid receptor 1 (Homo sapiens) (UniProt P21554); assay: Binding affinity to CB1 (unknown origin) at 10 uM by radioligand binding assay relative to control
[23] = Toxicity in female Sprague-Dawley rat assessed as change in urinalysis at 2.5 to 7.5 mg/kg, po administered once daily for 4 weeks and measured after 4 weeks; assay type: organism-based; settings: in vivo, 1344 h, dose 2.5-7.5 mg/kg, time 8 weeks
[24] = molecular target: Sodium-dependent serotonin transporter (Homo sapiens) (UniProt P31645); assay: Binding affinity to 5-HTT (unknown origin) at 10 uM by radioligand binding assay relative to control
[25] = molecular target: 5-hydroxytryptamine receptor 1A (Homo sapiens, UniProt P08908); assay: Agonist activity at human 5-HT1A expressed in CHO cells coexpressing Galpha15 by FLIPR calcium assay; assay type: functional, cell-based
[26] = molecular target: Beta-1 adrenergic receptor (Homo sapiens) (UniProt P08588); assay: Binding affinity to beta 1 receptor (unknown origin) at 10 uM by radioligand binding assay relative to control
[27] = Toxicity in Sprague-Dawley rat assessed as good general health at 2.5 to 7.5 mg/kg, po administered once daily for 4 weeks and measured after 4 weeks; assay type: organism-based; settings: in vivo, 1344 h, dose 2.5-7.5 mg/kg, time 8 weeks
MAO-A = MAO-A (Homo sapiens, UniProt P21397); assay: Binding affinity to MAO-A (unknown origin) at 10 uM by radioligand binding assay relative to control; settings: read-out: Activity
D(2) dopamine receptor = D(2) dopamine receptor (Homo sapiens, UniProt P14416); assay: Antagonist activity at human D2L receptor expressed in Flp-In-CHO cells; assay type: cell-based
[28] = molecular target: 5-hydroxytryptamine receptor 2C (Rattus norvegicus, UniProt P08909); assay: Agonist activity at rat 5-HT2CR; assay type: functional
Mus musculus [29] = assay: Antipsychotic activity against MK-801 induced hypermobilization in male C57BL/6J mouse model assessed as reduction in hypermobilization state at 10 mg/kg, IG pretreated with compound followed by MK-801 addition and measured after 30 mins by open field test; assay type: functional, organism-based
[30] = Toxicity in male Sprague-Dawley rat assessed as irritability at 7.5 mg/kg, po administered once daily for 4 weeks and measured after 4 weeks; assay type: organism-based; settings: in vivo, 1344 h, time 8 weeks
[31] = AUClast in male mouse at 10 mg/kg, IG measured after 24 hrs; assay type: ADME, organism-based; settings: in vivo, po

Cannabinoid receptor 1 (Homo sapiens), sequence (P21554 whole entry): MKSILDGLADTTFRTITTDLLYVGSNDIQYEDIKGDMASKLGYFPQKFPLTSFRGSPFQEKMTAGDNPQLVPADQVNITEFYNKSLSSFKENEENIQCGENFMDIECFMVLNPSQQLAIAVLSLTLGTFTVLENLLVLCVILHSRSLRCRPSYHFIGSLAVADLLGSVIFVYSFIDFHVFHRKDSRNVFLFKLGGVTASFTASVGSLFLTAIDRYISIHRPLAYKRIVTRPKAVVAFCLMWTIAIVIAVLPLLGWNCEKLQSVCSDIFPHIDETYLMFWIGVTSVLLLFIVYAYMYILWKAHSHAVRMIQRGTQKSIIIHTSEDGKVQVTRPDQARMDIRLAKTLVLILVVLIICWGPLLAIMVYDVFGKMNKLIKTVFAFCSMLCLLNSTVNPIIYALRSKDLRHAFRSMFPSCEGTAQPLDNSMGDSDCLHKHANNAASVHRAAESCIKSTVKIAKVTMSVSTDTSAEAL
5-hydroxytryptamine receptor 1A, sequence (P08908 whole entry): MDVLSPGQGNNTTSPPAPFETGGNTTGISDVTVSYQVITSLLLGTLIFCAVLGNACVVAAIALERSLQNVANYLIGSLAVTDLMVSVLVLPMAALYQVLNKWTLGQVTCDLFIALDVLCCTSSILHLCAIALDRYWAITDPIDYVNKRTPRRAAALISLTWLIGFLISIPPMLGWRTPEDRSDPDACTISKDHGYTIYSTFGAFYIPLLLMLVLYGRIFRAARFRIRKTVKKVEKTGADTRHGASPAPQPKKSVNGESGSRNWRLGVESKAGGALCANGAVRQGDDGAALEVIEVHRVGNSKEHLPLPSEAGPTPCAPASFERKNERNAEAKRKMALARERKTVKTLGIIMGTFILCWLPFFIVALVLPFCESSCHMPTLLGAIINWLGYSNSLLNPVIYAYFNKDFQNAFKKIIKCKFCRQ
MAO-A, sequence (P21397 whole entry): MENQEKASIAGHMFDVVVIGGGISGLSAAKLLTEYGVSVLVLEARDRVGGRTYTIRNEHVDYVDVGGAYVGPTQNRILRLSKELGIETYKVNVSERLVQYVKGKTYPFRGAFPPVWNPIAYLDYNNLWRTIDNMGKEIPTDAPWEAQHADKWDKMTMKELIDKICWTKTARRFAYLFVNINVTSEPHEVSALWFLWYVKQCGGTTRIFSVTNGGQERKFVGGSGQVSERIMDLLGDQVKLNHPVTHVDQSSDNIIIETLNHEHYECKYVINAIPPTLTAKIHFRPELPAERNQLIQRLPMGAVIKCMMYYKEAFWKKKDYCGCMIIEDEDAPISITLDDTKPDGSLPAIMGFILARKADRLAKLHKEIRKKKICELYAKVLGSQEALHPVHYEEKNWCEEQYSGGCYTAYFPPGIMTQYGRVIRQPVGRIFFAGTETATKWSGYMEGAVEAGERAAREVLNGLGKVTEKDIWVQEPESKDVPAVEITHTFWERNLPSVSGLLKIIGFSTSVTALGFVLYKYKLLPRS
Cytochrome P450 2B6, sequence (P20813 whole entry): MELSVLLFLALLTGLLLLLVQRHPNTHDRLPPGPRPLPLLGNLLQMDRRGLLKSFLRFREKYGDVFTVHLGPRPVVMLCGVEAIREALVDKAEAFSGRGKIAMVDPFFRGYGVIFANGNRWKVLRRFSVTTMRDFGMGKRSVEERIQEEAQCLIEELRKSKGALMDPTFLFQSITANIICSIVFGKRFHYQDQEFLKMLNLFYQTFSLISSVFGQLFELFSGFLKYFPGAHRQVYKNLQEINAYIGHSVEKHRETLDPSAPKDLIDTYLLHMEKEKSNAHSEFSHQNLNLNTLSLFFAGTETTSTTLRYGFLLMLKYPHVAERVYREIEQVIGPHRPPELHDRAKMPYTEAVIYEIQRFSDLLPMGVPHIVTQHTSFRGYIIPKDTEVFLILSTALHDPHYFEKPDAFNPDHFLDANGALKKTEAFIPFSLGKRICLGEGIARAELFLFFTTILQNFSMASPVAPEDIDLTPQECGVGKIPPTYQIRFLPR
5-hydroxytryptamine receptor 2C, sequence (P08909 whole entry): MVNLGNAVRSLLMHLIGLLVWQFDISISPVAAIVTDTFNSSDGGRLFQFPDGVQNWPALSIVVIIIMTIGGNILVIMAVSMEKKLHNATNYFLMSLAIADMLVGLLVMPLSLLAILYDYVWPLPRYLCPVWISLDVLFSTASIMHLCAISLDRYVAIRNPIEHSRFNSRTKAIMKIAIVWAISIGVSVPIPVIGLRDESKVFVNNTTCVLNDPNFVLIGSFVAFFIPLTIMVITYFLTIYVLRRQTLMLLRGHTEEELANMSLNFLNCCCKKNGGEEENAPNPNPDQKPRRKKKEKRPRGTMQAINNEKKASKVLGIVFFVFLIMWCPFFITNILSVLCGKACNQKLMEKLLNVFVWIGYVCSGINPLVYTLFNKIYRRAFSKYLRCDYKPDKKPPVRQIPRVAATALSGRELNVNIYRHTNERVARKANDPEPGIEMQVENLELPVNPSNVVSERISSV
Cytochrome P450 1A2, sequence (P05177 whole entry): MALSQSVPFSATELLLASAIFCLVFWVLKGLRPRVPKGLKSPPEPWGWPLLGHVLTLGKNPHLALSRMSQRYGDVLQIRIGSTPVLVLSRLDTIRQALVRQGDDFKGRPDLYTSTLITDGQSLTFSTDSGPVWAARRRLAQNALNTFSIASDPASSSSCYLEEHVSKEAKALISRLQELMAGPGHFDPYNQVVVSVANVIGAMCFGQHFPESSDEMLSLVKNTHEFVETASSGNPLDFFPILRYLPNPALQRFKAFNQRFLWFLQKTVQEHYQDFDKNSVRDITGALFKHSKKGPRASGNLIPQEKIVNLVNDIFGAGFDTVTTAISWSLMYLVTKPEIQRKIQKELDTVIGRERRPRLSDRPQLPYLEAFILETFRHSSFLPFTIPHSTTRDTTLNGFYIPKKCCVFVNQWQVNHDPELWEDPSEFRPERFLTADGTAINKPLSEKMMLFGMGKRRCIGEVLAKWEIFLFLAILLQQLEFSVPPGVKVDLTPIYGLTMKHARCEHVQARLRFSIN
Beta-1 adrenergic receptor (Homo sapiens), sequence (P08588 whole entry, looked up): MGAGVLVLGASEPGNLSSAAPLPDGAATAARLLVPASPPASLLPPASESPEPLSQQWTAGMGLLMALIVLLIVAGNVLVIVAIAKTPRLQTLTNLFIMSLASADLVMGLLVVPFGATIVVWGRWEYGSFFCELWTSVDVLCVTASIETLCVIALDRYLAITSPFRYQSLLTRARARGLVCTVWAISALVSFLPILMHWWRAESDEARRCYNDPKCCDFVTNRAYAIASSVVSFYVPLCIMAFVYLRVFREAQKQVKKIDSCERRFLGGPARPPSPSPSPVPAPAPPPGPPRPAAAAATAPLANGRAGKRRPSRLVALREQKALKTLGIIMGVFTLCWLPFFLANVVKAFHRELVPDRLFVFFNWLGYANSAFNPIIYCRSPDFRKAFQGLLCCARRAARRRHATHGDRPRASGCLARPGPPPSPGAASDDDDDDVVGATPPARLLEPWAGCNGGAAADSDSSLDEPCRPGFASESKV
Sodium-dependent serotonin transporter (Homo sapiens), sequence (P31645 whole entry, looked up): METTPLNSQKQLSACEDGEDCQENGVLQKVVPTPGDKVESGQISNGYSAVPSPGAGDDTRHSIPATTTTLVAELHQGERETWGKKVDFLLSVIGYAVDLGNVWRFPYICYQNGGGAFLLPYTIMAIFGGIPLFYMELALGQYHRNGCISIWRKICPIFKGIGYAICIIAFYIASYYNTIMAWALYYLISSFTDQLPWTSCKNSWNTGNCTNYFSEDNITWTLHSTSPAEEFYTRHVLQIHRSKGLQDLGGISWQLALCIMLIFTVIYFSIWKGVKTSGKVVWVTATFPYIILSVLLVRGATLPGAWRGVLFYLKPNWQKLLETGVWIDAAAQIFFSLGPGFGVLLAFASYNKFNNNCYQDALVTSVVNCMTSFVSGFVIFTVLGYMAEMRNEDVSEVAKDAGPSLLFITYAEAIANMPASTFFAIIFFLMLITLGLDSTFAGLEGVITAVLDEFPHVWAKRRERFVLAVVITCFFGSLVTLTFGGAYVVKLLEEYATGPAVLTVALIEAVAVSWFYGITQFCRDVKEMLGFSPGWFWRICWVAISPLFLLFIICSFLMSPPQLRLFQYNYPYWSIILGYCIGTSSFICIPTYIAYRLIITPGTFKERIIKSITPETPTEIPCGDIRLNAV
D(2) dopamine receptor, sequence (P14416 whole entry): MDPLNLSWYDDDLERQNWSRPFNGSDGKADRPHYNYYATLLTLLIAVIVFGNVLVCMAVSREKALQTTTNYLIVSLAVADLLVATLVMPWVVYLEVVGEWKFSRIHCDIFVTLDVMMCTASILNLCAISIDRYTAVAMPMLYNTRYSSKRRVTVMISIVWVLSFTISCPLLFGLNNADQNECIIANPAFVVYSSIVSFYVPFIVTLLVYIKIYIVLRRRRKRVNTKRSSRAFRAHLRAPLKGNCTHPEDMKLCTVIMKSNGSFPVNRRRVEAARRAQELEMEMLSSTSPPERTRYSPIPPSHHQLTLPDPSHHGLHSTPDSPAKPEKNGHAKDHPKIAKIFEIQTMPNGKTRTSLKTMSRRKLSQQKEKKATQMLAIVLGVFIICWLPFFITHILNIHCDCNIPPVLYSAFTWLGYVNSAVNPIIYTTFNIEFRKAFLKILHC
5-hydroxytryptamine receptor 3A (Homo sapiens), sequence (P46098 whole entry): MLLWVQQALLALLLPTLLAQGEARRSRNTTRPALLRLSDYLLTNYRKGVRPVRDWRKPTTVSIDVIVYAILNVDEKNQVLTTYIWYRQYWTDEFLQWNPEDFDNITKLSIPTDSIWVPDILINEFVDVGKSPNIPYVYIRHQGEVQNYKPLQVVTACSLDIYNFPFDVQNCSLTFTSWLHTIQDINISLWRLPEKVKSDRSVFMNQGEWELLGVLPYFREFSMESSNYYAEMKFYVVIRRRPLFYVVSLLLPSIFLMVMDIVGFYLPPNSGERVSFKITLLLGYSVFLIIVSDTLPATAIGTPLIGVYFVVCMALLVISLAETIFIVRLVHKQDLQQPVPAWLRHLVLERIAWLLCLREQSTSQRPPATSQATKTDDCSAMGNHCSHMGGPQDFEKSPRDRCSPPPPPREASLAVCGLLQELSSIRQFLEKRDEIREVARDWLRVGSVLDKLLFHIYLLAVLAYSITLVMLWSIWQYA

**Q.** With `c1cc2c(s1)[C@@H]1CNCCN1CC2` as the compound, how does the Activity [1] read?
**A.** 13%

**Q.** What about the Activity [2] of the same compound?
**A.** 26.5%

**Q.** And the Activity (Mus musculus [3])?
**A.** Active

**Q.** What about the Activity [4] of the same compound?
**A.** Non-toxic

**Q.** And the Activity [5]?
**A.** Non-toxic

**Q.** What about the Activity [6] of the same compound?
**A.** Non-toxic

**Q.** And the Activity [7]?
**A.** Non-toxic

**Q.** What about the Activity [8] of the same compound?
**A.** Non-toxic

**Q.** And the Activity (Mus musculus [9])?
**A.** Active; More Effective Than Aripiprazole

**Q.** What about the Activity [10] of the same compound?
**A.** Non-toxic

**Q.** What about the IC50 (Cytochrome P450 2B6) of the same compound?
**A.** > 50 µM

**Q.** What about the Activity [11] of the same compound?
**A.** Non-toxic

**Q.** And the Activity [12]?
**A.** Non-toxic

**Q.** What about the Activity (Mus musculus [13]) of the same compound?
**A.** Active

**Q.** What about the Activity [14] of the same compound?
**A.** Non-toxic

**Q.** And the Activity [15]?
**A.** Non-toxic

**Q.** And the activity at 10 µM (L-type calcium channel)?
**A.** -7.25%

**Q.** What about the Activity [16] of the same compound?
**A.** Non-toxic

**Q.** What about the Activity [17] of the same compound?
**A.** Non-toxic

**Q.** And the IC50 (Cytochrome P450 1A2)?
**A.** > 50 µM

**Q.** What about the Activity [18] of the same compound?
**A.** Toxic

**Q.** And the CLint scaled at 1 µM [19]?
**A.** 6.8 mL/min/kg

**Q.** And the Activity [20]?
**A.** Non-toxic

**Q.** And the Activity (Mus musculus [21])?
**A.** Active; More Effective Than Ulotaront

**Q.** And the Activity [22]?
**A.** 2.45%

**Q.** What about the Activity [23] of the same compound?
**A.** Non-toxic

**Q.** And the Activity [24]?
**A.** 1.76%

**Q.** What about the EC50 [25] of the same compound?
**A.** 31.5 µM

**Q.** What about the Activity [26] of the same compound?
**A.** -0.11%

**Q.** What about the Activity [27] of the same compound?
**A.** Non-toxic

**Q.** And the activity at 10 µM (MAO-A)?
**A.** 5.33%

**Q.** What about the IC50 (D(2) dopamine receptor) of the same compound?
**A.** > 100 µM

**Q.** What about the EC50 [28] of the same compound?
**A.** 0.0702 µM

**Q.** What about the Activity (Mus musculus [29]) of the same compound?
**A.** Active; Similar Effect Observed Compared To Brexpiprazole

**Q.** What about the Activity [30] of the same compound?
**A.** Non-toxic

**Q.** And the AUC(0-t) at 24 h [31]?
**A.** 21.6 µM·h
